This passage reports IC50 and melting point results from patent US20080167314A1, “Condensed Imidazole Compound And Use Thereof” (priority 2004, published 2008).

Data set [1] concerns the target T1, active form p38 MAP kinase (Homo sapiens, UniProt Q16539).
T1 construct: made in house; host or cells: Sf-21 insect cells, baculovirus BAC-HP38 co-infected with BAC-caMKK3
The experiment in a line: Measurement of the p38 MAP kinase inhibitory activity (32P uptake into Myelin Basic Protein). Format: biochemical. The settings on record: 260 ng active form p38 MAP kinase, 1 μg Myelin Basic Protein, 2.5 μM ATP solution, 30° C. for 60 minutes. The procedure:
(1) Cloning of Human p38 MAP Kinase Gene and Preparation of Recombinant Baculovirus
Cloning of human p38 MAP kinase gene was performed by a PCR method using a primer set P38-U:
(3) Preparation of Active Form p38 MAP Kinase
The Sf-21 cells were seeded on 100 ml Sf-900II SFM medium (GIBCOBRL) to 1×10^6 cells/mL and cultured at 27° C. for 24 hours. After each 0.2 mL of the virusstock BAC-HP38 of recombinant Baculovirus and BAC-caMKK3 were added, the culturing was further performed for 48 hours. After the cells were separated from the culturing solution by centrifugation (3000 rpm, 10 min), the cells were washed twice with PBS. After the cells were suspended in 10 ml Lysis buffer (25 mM HEPES (pH 7.5), 1% Triton X, 130 mM NaCl, 1 mM EDTA, 1 mM DTT, 25 mM β-glycerophosphate, […], 1 mM APMSF, 1 mM Sodium orthovanadate), the cells were lysed by treating twice with a homogenizer (POLYTRON) at 20000 rpm for 2 minutes. By using Anti-FLAG M2 Affinity Gel (Eastman Chemical), active form p38 MAP kinase was purified from the supernatant obtained by centrifugation (40000 rpm, 45 minutes).
(4) Measurement of the p38 MAP Kinase Inhibitory Activity
2.5 μL of a test compound dissolved in DMSO was added to 37.5 μL reaction solution (25 mM HEPES (pH 7.5), 10 mM Magnesium Acetate) containing 260 ng active form p38 MAP kinase and 1 μg Myelin Basic Protein, which was maintained at 30° C. for 5 minutes. The reaction was initiated by adding 10 μL ATP solution (2.5 μM ATP, 0.1 μCi [g-^32P]ATP). After the reaction was performed at 30° C. for 60 minutes, the reaction was stopped by adding 50 μL 20% TCA solution. After the reaction solution was allowed to stand at 0° C. for 20 minutes, an acid insoluble fraction was transferred to GF/C filter (Packard Japan) using Cell Harvester (Packard Japan) and washed with 250 mM H3PO4. After drying at 45° C. for 60 minutes, […] Microscint 0 (Packard Japan) was added and the radioactivity was measured with a TopCount (Packard Japan). The concentration (IC50 value) necessary for inhibiting uptake of ^32P into an acid insoluble fraction by 50% was calculated with PRISM 2.01 (Graphpad Software).

For data set [2], the system named is TNF-α production in THP-1 cells. The experiment in a line: Measurement of TNF-α production inhibitory activity in LPS-stimulated THP-1 cells (ELISA). Format: cell-based. Particulars: Homo sapiens, LPS 5 μg/mL, 4 hours, TNF-α in supernatant by ELISA. As to the method:
Measurement of TNF-α Production Inhibitory Activity
After THP-1 cells which had been cultured in PRMI 1640 medium (manufactured by Life Technologies, Inc.) containing 1% non-activated bovine fetal serum (manufactured by Life Technologies, Inc., U.S.A.) and 10 mM HEPES (pH 7.5) was plated on a 96-well plate to 1×10^5 cells/well, 1 μL test compound dissolved in DMSO was added to there. After incubation at 37° C. for 1 hour in a CO2 incubator, LPS (Wako Pure Chemicals) was added to the final concentration 5 μg/mL. After cultured at 37° C. for 4 hours in a CO2 incubator, the supernatant was obtained by centrifugation. The concentration of TNF-α in the supernatant was measured with ELISA (R&D System, Quantikine Kit). The concentration (IC50 value) necessary for inhibiting TNF-α production by 50% was calculated by PRIMS 2.01 (Graphpad Software).

Data set [3] has as its system MMP-13 production in human normal articular chondrocytes. The experiment in a line: Measurement of MMP-13 production inhibitory activity in rhIL-1β-stimulated human normal articular chondrocytes (ELISA). The settings on record: Chondrocyte, rhIL-1β 0.1 ng/mL, 24 hr, MMP-13 in culture supernatant by ELISA. The data set is classed as cell-based. As to the method:
Measurement of MMP-13 Production Inhibitory Activity
Human normal articular chondrocytes (Camblex) were grown in a chondrocyte growth medium (CGM: Camblex), and the cells were suspended in a chondrocyte differentiation medium (CDM: Camblex) and plated on a 96 well plate at 2×10^4 cells/well (150 μL/well). After culturing for 3 days under 37° C., 5% CO2 conditions, the culture medium was exchanged to 0.1% BSA added α-modification of Eagle's (α-MEM: Gibco), and the cells were cultured for 4 hr. The compound was added thereto and, after culture for 1 hr, recombinant human IL-1β (rhIL-1β: R&D systems) was added at 0.1 ng/mL. After culture for 24 hr, the culture supernatant was recovered, and the concentration of MMP-13 in the culture supernatant was measured by the ELISA method (Amersham).

T1 sequence (Q16539 whole entry): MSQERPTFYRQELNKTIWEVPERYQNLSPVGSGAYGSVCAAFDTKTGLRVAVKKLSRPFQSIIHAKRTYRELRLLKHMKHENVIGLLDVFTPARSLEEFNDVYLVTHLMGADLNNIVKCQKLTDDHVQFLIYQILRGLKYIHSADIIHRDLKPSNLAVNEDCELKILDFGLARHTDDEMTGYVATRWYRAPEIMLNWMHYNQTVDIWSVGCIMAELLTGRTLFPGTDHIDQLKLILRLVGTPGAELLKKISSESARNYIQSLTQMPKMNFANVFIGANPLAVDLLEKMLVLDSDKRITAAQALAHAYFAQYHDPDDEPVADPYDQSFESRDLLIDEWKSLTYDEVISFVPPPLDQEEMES

As to `Cc1cccc(-c2nc3ccc(Cl)nn3c2-c2ccnc(F)c2)c1` [Example 1, 6-Chloro-3-(2-fluoropyridin-4-yl)-2-(3-methylphenyl)imidazo[1,2-b]pyridazine], the IC50 in data set [1] is 0.11 µM; in data set [2], 0.95 µM; in data set [3], 0.6 µM.
In the same order, the values of `Cc1cccc(-c2nc3ccc(Cl)nn3c2-c2ccnc(NC3CCCCC3)c2)c1` [Example 2, 4-[6-Chloro-2-(3-methylphenyl)imidazo[1,2-b]pyridazin-3-yl]-N-cyclohexylpyridin-2-amine] are 0.19 µM, 0.028 µM and 0.011 µM.
Turning to `Cc1cccc(-c2nc3cccnn3c2-c2ccnc(NC(=O)c3ccccc3)c2)c1` [Example 19, N-{4-[2-(3-Methylphenyl)imidazo[1,2-b]pyridazin-3-yl]pyridin-2-yl}benzamide], the IC50 in data set [2] was found to be 0.018 µM; in data set [3], 0.073 µM.
In the same order, the values of `Cc1cc(-c2nc3cccnn3c2-c2ccnc(NC(=O)c3ccncc3)c2)ccc1F` [Example 42-23, N-{4-[2-(4-fluoro-3-methylphenyl)imidazo[1,2-b]pyridazin-3-yl]pyridin-2-yl}isonicotinamide] are 0.01 µM and 0.014 µM.
As for `Cc1ccc(C(=O)Nc2cc(-c3c(-c4ccc(F)c(C)c4)nc4cccnn34)ccn2)cn1` [Example 42-27, N-{4-[2-(4-fluoro-3-methylphenyl)imidazo[1,2-b]pyridazin-3-yl]pyridin-2-yl}-6-methylnicotinamide], the figures for the IC50 in data set [2] and in data set [3] were 0.0015 µM and 0.016 µM, respectively.
As for `Cc1cc(C(=O)Nc2cc(-c3c(-c4ccc(F)c(C)c4)nc4cccnn34)ccn2)ccn1` [Example 58, N-{4-[2-(4-Fluoro-3-methylphenyl)imidazo[1,2-b]pyridazin-3-yl]pyridin-2-yl}-2-methylisonicotinamide], the values for the IC50 in data set [2] and in data set [3] were 0.0022 µM and 0.041 µM, respectively.
In the same order, the values of `Cc1cc(-c2nc3cccnn3c2-c2ccnc(NC(=O)c3cccnc3)c2)ccc1F` [Example 59, N-{4-[2-(4-Fluoro-3-methylphenyl)imidazo[1,2-b]pyridazin-3-yl]pyridin-2-yl}nicotinamide] are 0.0029 µM and 0.02 µM.
The compound `CCNC(=O)Nc1cc(-c2c(-c3ccc(Cl)cc3)nc3cccnn23)ccn1` [Example Compound 28-8, N-{4-[2-(4-chlorophenyl)imidazo[1,2-b]pyridazin-3-yl]pyridin-2-yl}-N′-ethylurea] came in with a melting point of 223 to 224 °C.
The same measure, in the same setting: to `CCCNC(=O)Nc1cc(-c2c(-c3ccc(F)cc3)nc3cccnn23)ccn1` [Example Compound 28-9, N-{4-[2-(4-fluorophenyl)imidazo[1,2-b]pyridazin-3-yl]pyridin-2-yl}-N′-propylurea] belongs 219 to 220 °C; to `CC(C)NC(=O)Nc1cc(-c2c(-c3ccc(F)cc3)nc3cccnn23)ccn1` [Example Compound 28-10, N-{4-[2-(4-fluorophenyl)imidazo[1,2-b]pyridazin-3-yl]pyridin-2-yl}-N′-isopropylurea], 222 to 223 °C; to `CCN(CC)C(=O)Nc1cc(-c2c(-c3cccc(C)c3)nc3cccnn23)ccn1` [Example Compound 32-1, N,N-diethyl-N′-{4-[2-(3-methylphenyl)imidazo[1,2-b]pyridazin-3-yl]pyridin-2-yl}urea], 166 to 167 °C.
On the same count and under the same terms, with `Cc1cccc(-c2nc3cccnn3c2-c2ccnc(NC(=O)N3CCc4ccccc4C3)c2)c1` [Example Compound 32-2, N-{4-[2-(3-methylphenyl)imidazo[1,2-b]pyridazin-3-yl]pyridin-2-yl}-3,4-dihydroisoquinoline-2-(1H)carboxamide] the figure was 122 to 124 °C; with `Cc1cc(-c2nc3c(C)cc(Cl)nn3c2-c2ccnc(N)c2)ccc1F` [Example Compound 36-1, 4-[6-chloro-2-(4-fluoro-3-methylphenyl)-8-methylimidazo[1,2-b]pyridazin-3-yl]-2-pyridylamine], 218 to 219 °C; with `Cc1cc(-c2nc3cc(C(C)(C)C)c(Cl)nn3c2-c2ccnc(N)c2)ccc1F` [Example Compound 36-2, 4-[7-tert-butyl-6-chloro-2-(4-fluoro-3-methylphenyl)imidazo[1,2-b]pyridazin-3-yl]-2-pyridylamine], 232 to 233 °C.
On the same count and under the same terms, with `COc1cc(Cl)nn2c(-c3ccnc(N)c3)c(-c3ccc(F)c(C)c3)nc12` [Example Compound 36-3, 4-[6-chloro-2-(4-fluoro-3-methylphenyl)-8-methoxyimidazo[1,2-b]pyridazin-3-yl]-2-pyridylamine] the figure was 200 to 201 °C; with `CSc1cc(Cl)nn2c(-c3ccnc(N)c3)c(-c3ccc(F)c(C)c3)nc12` [Example Compound 36-4, 4-[6-chloro-2-(4-fluoro-3-methylphenyl)-8-(methylthio)imidazo[1,2-b]pyridazin-3-yl]-2-pyridylamine], 237 to 238 °C; with `Cc1cccc(-c2nc3cccnn3c2-c2ccnc(N)n2)c1` [Example Compound 37-1, 4-[2-(3-methylphenyl)imidazo[1,2-b]pyridazin-3-yl]-2-pyrimidinamine], 250 to 251 °C.
In the case of `Cc1cc(-c2nc3c(C)ccnn3c2-c2ccnc(N)c2)ccc1F` [Example Compound 37-2, 4-[2-(4-fluoro-3-methylphenyl)-8-methylimidazo[1,2-b]pyridazin-3-yl]-2-pyridylamine], the melting point is 212 to 213 °C.
Same read-out and setting: with `Cc1cc(-c2nc3cc(C(C)(C)C)cnn3c2-c2ccnc(N)c2)ccc1F` [Example Compound 37-3, 4-[7-tert-butyl-2-(4-fluoro-3-methylphenyl)imidazo[1,2-b]pyridazin-3-yl]-2-pyridylamine] the figure was 212 to 213 °C.
Same read-out and setting: to `COc1ccnn2c(-c3ccnc(N)c3)c(-c3ccc(F)c(C)c3)nc12` [Example Compound 37-4, 4-[2-(4-fluoro-3-methylphenyl)-8-methoxyimidazo[1,2-b]pyridazin-3-yl]-2-pyridylamine] belongs 219 to 220 °C.
Compound `Cc1cccc(-c2nc3cccnn3c2-c2ccnc(NCC(C)(C)C)c2)c1` [Example compound 6-18, N-(2,2-dimethylpropyl)-4-[2-(3-methylphenyl)imidazo[1,2-b]pyridazin-3-yl]pyridin-2-amine] had a melting point of 157 to 158 °C.
Same read-out and setting: with `CCC(CC)Nc1cc(-c2c(-c3cccc(C)c3)nc3cccnn23)ccn1` [Example compound 6-20, N-(1-ethylpropyl)-4-[2-(3-methylphenyl)imidazo[1,2-b]pyridazin-3-yl]pyridin-2-amine] the figure was 155 to 156 °C; with `COc1ccc(C(=O)Nc2cc(-c3c(-c4cccc(C)c4)nc4cccnn34)ccn2)cc1` [Example compound 20-2, 4-methoxy-N-{4-[2-(3-methylphenyl)imidazo[1,2-b]pyridazin-3-yl]pyridin-2-yl}benzamide], 177 to 178 °C.
